Test results reported in US20090131354A1, “miR-126 REGULATED GENES AND PATHWAYS AS TARGETS FOR THERAPEUTIC INTERVENTION” (priority 2007, published 2009).

Tested on: A549 cells
Experiment: mRNA array gene expression analysis after transfection
Format: cell-based, human

hsa-miR-126 (UCGUACCGUGAGUAAUAAUGC; synthetic pre-miR form, further chemistry not given here) [Synthetic hsa-miR-126 (Pre-miR™-hsa-miR-126, Ambion cat. no. AM17100)]
Δ log2 PRNP mRNA: −0.8862 log2 | Δ log2 ABAT mRNA (A549, 30 nM): 0.7144 log2 | Δ log2 ABCC1 mRNA (A549, 30 nM): −1.371 log2 | Δ log2 ABHD3 mRNA (A549, 30 nM): −1.85 log2 | Δ log2 ACSM3 mRNA (A549, 30 nM): 1.028 log2 | Δ log2 ACTR2 mRNA (A549, 30 nM): 0.8699 log2 | Δ log2 ADAM9 mRNA (A549, 30 nM): −1.175 log2 | Δ log2 ADK mRNA (A549, 30 nM): −1.161 log2 | Δ log2 AES mRNA (A549, 30 nM): −1.21 log2 | Δ log2 AHNAK mRNA (A549, 30 nM): −1.362 log2 | Δ log2 ALDH6A1 mRNA (A549, 30 nM): 0.9207 log2 | Δ log2 ANG /// RNASE4 mRNA (A549, 30 nM): 0.8377 log2 | Δ log2 ANKRD46 mRNA (A549, 30 nM): 1.489 log2 | Δ log2 ANPEP mRNA (A549, 30 nM): 1.016 log2 | Δ log2 ANTXR1 mRNA (A549, 30 nM): −1.152 log2 | Δ log2 APOH mRNA (A549, 30 nM): 1.465 log2 | Δ log2 APP mRNA (A549, 30 nM): 0.7951 log2 | Δ log2 AQP3 mRNA (A549, 30 nM): 1.683 log2 | Δ log2 ARFRP1 mRNA (A549, 30 nM): −0.7079 log2 | Δ log2 ARG2 mRNA (A549, 30 nM): 0.8026 log2 | Δ log2 ARHGAP11A mRNA (A549, 30 nM): −0.8591 log2 | Δ log2 ARHGDIA mRNA (A549, 30 nM): −1.479 log2 | Δ log2 ARID5B mRNA (A549, 30 nM): 0.8176 log2 | Δ log2 ARL2BP mRNA (A549, 30 nM): 0.9301 log2 | Δ log2 ARTS-1 mRNA (A549, 30 nM): 0.886 log2 | Δ log2 ASNS mRNA (A549, 30 nM): −0.7092 log2 | Δ log2 ATP6V0E mRNA (A549, 30 nM): 1.493 log2 | Δ log2 ATP6V1D mRNA (A549, 30 nM): −1.206 log2 | Δ log2 B4GALT4 mRNA (A549, 30 nM): −2.01 log2 | Δ log2 B4GALT6 mRNA (A549, 30 nM): −0.8145 log2 | Δ log2 BCL2A1 mRNA (A549, 30 nM): −0.8657 log2 | Δ log2 BCL6 mRNA (A549, 30 nM): 1.023 log2 | Δ log2 BF mRNA (A549, 30 nM): 1.375 log2 | Δ log2 BHLHB2 mRNA (A549, 30 nM): −0.7321 log2 | Δ log2 BTG2 mRNA (A549, 30 nM): 0.7161 log2 | Δ log2 C1R mRNA (A549, 30 nM): 1.372 log2 | Δ log2 C1orf121 mRNA (A549, 30 nM): −1.019 log2 | Δ log2 C2orf26 mRNA (A549, 30 nM): −1.688 log2 | Δ log2 C2orf33 mRNA (A549, 30 nM): −1.066 log2 | Δ log2 C3 mRNA (A549, 30 nM): 1.751 log2 | Δ log2 C5orf15 mRNA (A549, 30 nM): −1.099 log2 | Δ log2 C6orf75 mRNA (A549, 30 nM): −1.159 log2 | Δ log2 C8orf1 mRNA (A549, 30 nM): −1.201 log2 | Δ log2 C8orf32 mRNA (A549, 30 nM): −1.162 log2 | Δ log2 C19orf28 mRNA (A549, 30 nM): −1.583 log2 | Δ log2 CA11 mRNA (A549, 30 nM): 0.8832 log2 | Δ log2 CCND1 mRNA (A549, 30 nM): −0.7871 log2 | Δ log2 CCNG1 mRNA (A549, 30 nM): 0.7209 log2 | Δ log2 CD9 mRNA (A549, 30 nM): −1.226 log2 | Δ log2 CDC37L1 mRNA (A549, 30 nM): −1.198 log2 | Δ log2 CDH4 mRNA (A549, 30 nM): −1.072 log2 | Δ log2 CDH17 mRNA (A549, 30 nM): 1.248 log2 | Δ log2 CEACAM1 mRNA (A549, 30 nM): 1.002 log2 | Δ log2 CEBPD mRNA (A549, 30 nM): 0.9196 log2 | Δ log2 CFH /// CFHL1 mRNA (A549, 30 nM): 0.727 log2 | Δ log2 CGI-38 mRNA (A549, 30 nM): 1.152 log2 | Δ log2 CGI-48 mRNA (A549, 30 nM): 1.409 log2 | Δ log2 CHGB mRNA (A549, 30 nM): 2.066 log2 | Δ log2 CHST11 mRNA (A549, 30 nM): −0.8983 log2 | Δ log2 CMKOR1 mRNA (A549, 30 nM): −0.9537 log2 | Δ log2 COL4A1 mRNA (A549, 30 nM): −1.251 log2 | Δ log2 COL4A2 mRNA (A549, 30 nM): −1.104 log2 | Δ log2 COPS7A mRNA (A549, 30 nM): −0.7137 log2 | Δ log2 CP mRNA (A549, 30 nM): 2.115 log2 | Δ log2 CPE mRNA (A549, 30 nM): 0.8454 log2 | Δ log2 CPS1 mRNA (A549, 30 nM): 0.7371 log2 | Δ log2 CTDSP2 mRNA (A549, 30 nM): 1.119 log2 | Δ log2 CTDSPL mRNA (A549, 30 nM): 0.7348 log2 | Δ log2 CTGF mRNA (A549, 30 nM): 0.7924 log2 | Δ log2 CTPS mRNA (A549, 30 nM): −1.07 log2 | Δ log2 CTSS mRNA (A549, 30 nM): 0.9282 log2 | Δ log2 CXCL5 mRNA (A549, 30 nM): 0.8706 log2 | Δ log2 CYP3A5 mRNA (A549, 30 nM): 0.8111 log2 | Δ log2 DAAM1 mRNA (A549, 30 nM): 0.7598 log2 | Δ log2 DCBLD2 mRNA (A549, 30 nM): −1.329 log2 | Δ log2 DCUN1D1 mRNA (A549, 30 nM): −1.329 log2 | Δ log2 DDC mRNA (A549, 30 nM): 1.008 log2 | Δ log2 DDX3Y mRNA (A549, 30 nM): 0.738 log2 | Δ log2 DHRS2 mRNA (A549, 30 nM): 1.489 log2 | Δ log2 DIO2 mRNA (A549, 30 nM): −1.213 log2 | Δ log2 DIPA mRNA (A549, 30 nM): −0.8054 log2 | Δ log2 DKFZP586A0522 mRNA (A549, 30 nM): 1.054 log2 | Δ log2 DLG5 mRNA (A549, 30 nM): −1.467 log2 | Δ log2 DNAJB9 mRNA (A549, 30 nM): 0.9599 log2 | Δ log2 DPYSL3 mRNA (A549, 30 nM): −0.947 log2 | Δ log2 DSU mRNA (A549, 30 nM): 0.9423 log2 | Δ log2 DUSP6 mRNA (A549, 30 nM): 0.7153 log2 | Δ log2 EEF1D mRNA (A549, 30 nM): 0.9871 log2 | Δ log2 EFHD2 mRNA (A549, 30 nM): −1.109 log2 | Δ log2 EGFR mRNA (A549, 30 nM): −1.333 log2 | Δ log2 EHF mRNA (A549, 30 nM): 2.017 log2 | Δ log2 EML1 mRNA (A549, 30 nM): −1.062 log2 | Δ log2 ENPP4 mRNA (A549, 30 nM): 0.8064 log2 | Δ log2 EPHB2 mRNA (A549, 30 nM): −0.8763 log2 | Δ log2 ERBB3 mRNA (A549, 30 nM): 1.041 log2 | Δ log2 EREG mRNA (A549, 30 nM): −0.7398 log2 | Δ log2 F2RL1 mRNA (A549, 30 nM): −0.7846 log2 | Δ log2 F5 mRNA (A549, 30 nM): 1.115 log2 | Δ log2 F8A1 mRNA (A549, 30 nM): −0.8485 log2 | Δ log2 FAM46A mRNA (A549, 30 nM): 0.8499 log2 | Δ log2 FAS mRNA (A549, 30 nM): 0.9486 log2 | Δ log2 FBXO11 mRNA (A549, 30 nM): 0.8295 log2 | Δ log2 FCMD mRNA (A549, 30 nM): −0.8718 log2 | Δ log2 FGB mRNA (A549, 30 nM): 1.118 log2 | Δ log2 FGFR1 mRNA (A549, 30 nM): −0.7031 log2 | Δ log2 FGFR4 mRNA (A549, 30 nM): 0.9059 log2 | Δ log2 FGL1 mRNA (A549, 30 nM): 2.076 log2 | Δ log2 FLJ11184 mRNA (A549, 30 nM): −0.9264 log2 | Δ log2 FLJ13910 mRNA (A549, 30 nM): 1.05 log2 | Δ log2 FLJ20364 mRNA (A549, 30 nM): −1.021 log2 | Δ log2 FLJ21159 mRNA (A549, 30 nM): −1.12 log2 | Δ log2 FLJ31568 mRNA (A549, 30 nM): 0.732 log2 | Δ log2 FLRT3 mRNA (A549, 30 nM): 1.34 log2 | Δ log2 FMO5 mRNA (A549, 30 nM): 1.277 log2 | Δ log2 FOSL1 mRNA (A549, 30 nM): −0.9348 log2 | Δ log2 GABRA5 mRNA (A549, 30 nM): −1.612 log2 | Δ log2 GALNT4 mRNA (A549, 30 nM): 1.916 log2 | Δ log2 GALNT12 mRNA (A549, 30 nM): −0.8981 log2 | Δ log2 GART mRNA (A549, 30 nM): −1.022 log2 | Δ log2 GATM mRNA (A549, 30 nM): 1.127 log2 | Δ log2 GCH1 mRNA (A549, 30 nM): 0.9389 log2 | Δ log2 GLI2 mRNA (A549, 30 nM): −0.8678 log2 | Δ log2 GLT25D1 mRNA (A549, 30 nM): −1.17 log2 | Δ log2 GLUL mRNA (A549, 30 nM): 0.734 log2 | Δ log2 GNA13 mRNA (A549, 30 nM): 0.7394 log2 | Δ log2 GPR64 mRNA (A549, 30 nM): −1.209 log2 | Δ log2 GREM1 mRNA (A549, 30 nM): −1.049 log2 | Δ log2 GTF2B mRNA (A549, 30 nM): −0.9795 log2 | Δ log2 GTSE1 mRNA (A549, 30 nM): −0.7712 log2 | Δ log2 H2AFY mRNA (A549, 30 nM): −0.841 log2 | Δ log2 H3F3B mRNA (A549, 30 nM): −1.391 log2 | Δ log2 HERC4 mRNA (A549, 30 nM): −1.409 log2 | Δ log2 HES1 mRNA (A549, 30 nM): 0.8154 log2 | Δ log2 HIPK3 mRNA (A549, 30 nM): 0.8255 log2 | Δ log2 HKDC1 mRNA (A549, 30 nM): −0.8911 log2 | Δ log2 HLA-DMA mRNA (A549, 30 nM): 1.267 log2 | Δ log2 HLA-DMB mRNA (A549, 30 nM): 1.253 log2 | Δ log2 HMGA1 mRNA (A549, 30 nM): −0.8703 log2 | Δ log2 IER3IP1 mRNA (A549, 30 nM): 1.015 log2 | Δ log2 IFI16 mRNA (A549, 30 nM): 0.7014 log2 | Δ log2 IFIT1 mRNA (A549, 30 nM): 0.766 log2 | Δ log2 IL6R mRNA (A549, 30 nM): 1.8 log2 | Δ log2 IL6ST mRNA (A549, 30 nM): 0.7356 log2 | Δ log2 IL11 mRNA (A549, 30 nM): −1.98 log2 | Δ log2 ILK mRNA (A549, 30 nM): −1.193 log2 | Δ log2 INHBC mRNA (A549, 30 nM): 0.988 log2 | Δ log2 ITGAV mRNA (A549, 30 nM): −1.397 log2 | Δ log2 ITGB4 mRNA (A549, 30 nM): −1.084 log2 | Δ log2 IVNS1ABP mRNA (A549, 30 nM): −1.126 log2 | Δ log2 JUN mRNA (A549, 30 nM): −1.257 log2 | Δ log2 KCNJ2 mRNA (A549, 30 nM): 0.9432 log2 | Δ log2 KCNJ16 mRNA (A549, 30 nM): 0.8637 log2 | Δ log2 KCNK5 mRNA (A549, 30 nM): 0.9088 log2 | Δ log2 KCTD9 mRNA (A549, 30 nM): −1.102 log2 | Δ log2 KIAA0152 mRNA (A549, 30 nM): −1.121 log2 | Δ log2 KIAA0317 mRNA (A549, 30 nM): −0.9984 log2 | Δ log2 KIAA0882 mRNA (A549, 30 nM): 0.7061 log2 | Δ log2 KLC2 mRNA (A549, 30 nM): −1.308 log2 | Δ log2 KLF4 mRNA (A549, 30 nM): −1.01 log2 | Δ log2 LARP6 mRNA (A549, 30 nM): −1.273 log2
